These results are taken from PMC7714071, “Interaction of amyloid beta with humanin and acetylcholinesterase is modulated by ATP” (FEBS Open Bio, 2020).

One series has as its system A549 cells. The experiment in a line: MTT cell viability, A549. Format: cell-based, human. To be noted: 48 h, Fig. 7A; for effect of ATP on viability in HN-ID media: HN-immunodepleted media, versus no ATP; for effect on cell viability: control media, three experiments in triplicate. The method, then: (§1) Human NSCLC cell lines, A549 (ATCC CCL‐185) and H1299 (ATCC CRL‐5803), were purchased from the American Type Culture Collection (ATCC, Manassas, VA, USA). Cells were seeded as we reported earlier in 5 mL HyClone Dulbecco's modified Eagle's medium/nutrient mixture F‐12 (DMEM/F12) (GE Healthcare Life Sciences, Pittsburgh, PA, USA), supplemented with 10% Fetalgro bovine growth serum (FBS; RMBIO, Missoula, MT, USA), 50 U·mL^−1 penicillin, and […] streptomycin (Invitrogen, Life Technologies, Carlsbad, CA, USA) in 25‐cm^2 tissue culture flasks, and allowed to grow overnight in an incubator at 37 °C, 95% humidity, and 5% CO2. The cells were counted after trypan blue staining, with a hemocytometer.
(§2) The 3‐(4,5‐dimethylthiazol‐2‐yl)‐2,5‐diphenyl‐tetrazolium bromide (MTT) reduction assay (Sigma‐Aldrich), used to measure cell viability, was carried out as we reported earlier. Cells were seeded in 96‐well plates as indicated in 200 μL 10% FBS‐supplemented media per well and maintained overnight at 95% humidity and 5% CO2. After an overnight incubation, the media were replaced with 200 μL serum‐free media, and the cells were further incubated, without or with different treatments, for 24, 48, or 72 h. The final concentration of DMSO in each well never exceeded 0.1%. The cells were then incubated for 4 h with MTT (0.5 mg·mL^−1) in the dark. The media were carefully removed, and DMSO (100 μL) was added to dissolve the formazan crystals. The absorbance was measured at 570 nm in a plate reader. Untreated cells or wells containing only DMSO and media were used as a positive and negative control, respectively. Statistical analysis was conducted using […] PRISM version 8.4.3 for Windows. Significant values were considered at P < 0.05 and more significant values at P < 0.01, compared with the control.
(§3) Conditioned media were immunodepleted (ID) according to the methods previously described and our recently published report. Briefly, specific antibodies were bound to ELISA wells overnight (1 : 1000 dilution). The wells were then blocked and washed, then 300 μL of the conditioned medium (0.5 μg·μL^−1) treated as indicated, 72 h postserum starvation, was incubated with the antibodies bound to ELISA wells for 24 h. The ID media were then carefully removed and analyzed for the presence of the target protein or peptide by ELISA. The same amount of protein (3 µL of 600 µg·mL^−1 total protein) of each sample was analyzed in the experiments. Significant depletion (95–100%) was observed upon using each of the antibodies employed in this study.
(§4) Since addition of ATP appears to increase binding of HN to Aβ, and conversely, decreases the interaction of Aβ with AChE (Figs 3, 4, 5, 6), we tested the effect of added ATP on A549 and H1299 cell viability (Fig. 7). Exogenously added ATP at either 100 µM or 1 mM had no effect on viability of either A549 (Fig. 7A) or H1299 cells (Fig. 7B). […] To determine the effect of ID of AChE or HN in the absence or presence of added ATP on cell viability, ID media were prepared by first seeding 0.2 × 10^5 cells per well in 96‐well plates in 10% FBS‐supplemented media. The next day, the cells were incubated in serum‐free medium for 72 h, then ID of AChE or HN as described in Materials and methods. For cell viability assays, cells were seeded in 96‐well plates at 0.2 × 10^5 cells per well in 200 µL 10% FBS‐supplemented media followed by incubation in serum‐free medium for 12 h, then treated with the ID media for 48 h. […]

Series [1] relates to H1299 cells. The series is described as follows: MTT cell viability, H1299. Format: cell-based, human. To be noted: 48 h, Fig. 7B; for effect of ATP on viability in HN-ID media: HN-immunodepleted media, versus no ATP; for effect on cell viability: control media, three experiments in triplicate. How it is done: as §1, §2, §3, §4
Series [2] has as its system H1299 cells. Particulars: cited from earlier work.

Consider `Nc1ncnc2c1ncn2[C@@H]1O[C@H](COP(=O)(O)OP(=O)(O)OP(=O)(O)O)[C@@H](O)[C@H]1O` [ATP, Adenosine triphosphate], for which the “effect of ATP on viability in AChE-depleted media” value with A549 cells (AChE-immunodepleted media) and in the series with H1299 cells [1] (AChE-immunodepleted media) was “did not affect cell viability” each time. The “effect of ATP on viability in HN-ID media” value with A549 cells (ATP 100 µM), with A549 cells (ATP 1 mM), in the series with H1299 cells [1] (ATP 100 µM) and in the series on H1299 cells [1] (ATP 1 mM) was “No change in cell viability” in each case. Also, the “effect on cell viability” value in the series on A549 cells (ATP 100 µM), in the series with A549 cells (ATP 1 mM), in the series on H1299 cells [1] (ATP 100 µM) and in the series with H1299 cells [1] (ATP 1 mM) was “no effect” throughout.
As for Humanin [HN], the “cell viability upon ID of HN” value in the series on H1299 cells [2] (HN immunodepleted from H1299 conditioned media) is recorded as “diminished cell viability”. Further, in the series with H1299 cells [2] (HN-ID H1299 media), the “apoptosis upon ID of HN” value is listed as “increased apoptosis”.
